Assay results from PubChem BioAssay (NCI).
“And” between values parts separate entries of the source, which are not always exact repeats. Equal entries are not always repeated.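 All cell lines were grown in 96-well plates and treated with compound for 48 hours. GI50 = concentration required for 50% inhibition of growth. TGI: concentration producing complete growth inhibition.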

Legend:
Assay in all cases: DTP human tumour cell line panel, 48 h
NCI-H460 lung = test system: NCI-H460 lung
NCI/ADR-RES ovarian = test system: NCI/ADR-RES ovarian
MDA-MB-435 = test system: MDA-MB-435
CCRF-CEM leukemia = test system: CCRF-CEM leukemia
UO-31 renal = test system: UO-31 renal
HCT-116 colon = test system: HCT-116 colon
CAKI-1 renal = test system: CAKI-1 renal
HCC-2998 colon = test system: HCC-2998 colon
MOLT-4 leukemia = test system: MOLT-4 leukemia
T-47D breast = test system: T-47D breast

Row | SMILES | GI50 (NCI-H460 lung) | TGI (NCI-H460 lung) | GI50 (NCI/ADR-RES ovarian) | TGI (NCI/ADR-RES ovarian) | GI50 (MDA-MB-435) | TGI (MDA-MB-435) | GI50 (CCRF-CEM leukemia) | TGI (CCRF-CEM leukemia) | GI50 (UO-31 renal) | TGI (UO-31 renal) | GI50 (HCT-116 colon) | TGI (HCT-116 colon) | GI50 (CAKI-1 renal) | TGI (CAKI-1 renal) | GI50 (HCC-2998 colon) | TGI (HCC-2998 colon) | GI50 (MOLT-4 leukemia) | TGI (MOLT-4 leukemia) | GI50 (T-47D breast) | TGI (T-47D breast)
1 | Cn1c([N+](=O)[O-])cnc1/C=C1\Oc2ccccc2C1=O | 0.314 µM | 1.72 µM | 0.392 µM | 4.45 µM | 0.175 µM | 0.395 µM | 0.168 µM | 1.38 µM | 0.309 µM | 1.71 µM | 0.187 µM | 1.06 µM | 0.24 µM | 0.601 µM | 1.9 µM | 5.06 µM | 0.159 µM | 0.758 µM | 12.7 µM | 68.8 µM
2 | COc1cc(Nc2nccc(Nc3ccc4c(C)[nH]nc4c3)n2)cc(OC)c1OC | 1.29 µM | 5.3 µM | 4.39 µM | 13.7 µM | 0.666 µM | 3.09 µM | 6 µM | > 25 µM | 0.842 µM | 5.19 µM | 2.26 µM | 6.42 µM | 1.05 µM | 4.62 µM | 3.17 µM | 8.46 µM | 4.87 µM | 19.2 µM | 1.44 µM | 7.46 µM
3 | CCC1(CC)C(=O)OC(=O)C1(CC)CC | – | > 100 µM | – | > 100 µM | – | > 100 µM | – | > 100 µM | – | > 100 µM | – | > 100 µM | – | > 100 µM | – | > 100 µM | – | > 100 µM | – | > 100 µM
4 | CCOC(=O)Nc1nc2ccc(Cn3cccc3)cc2[nH]1 | – | > 100 µM | – | 21.2 µM | – | 0.731 µM | – | 25.1 µM | – | > 100 µM | – | > 100 µM | – | > 100 µM | – | > 26.5 µM | – | > 100 µM | – | > 100 µM
5 | C=C1C(=O)O[C@H]2[C@H]1CC/C(CNC(=O)c1cc3cc(OC)ccc3[nH]1)=C\CC[C@@]1(C)O[C@@H]21 | 5.51 µM | 20 µM | 6.07 µM | 23.7 µM | 1.73 µM | 5.03 µM | 1.97 µM | 5.93 µM | 1.27 µM | 2.64 µM | 0.645 µM | 2.07 µM | 1.97 µM | 6.25 µM | 1.66 µM | 3.26 µM | 2.08 µM | 6.85 µM | 1.47 µM | 4.35 µM
6 | CCN(CC)CCCC(C)Nc1c2ccc(Cl)cc2nc2ccc(OC)cc12 (stereo not drawn) | 1.3 µM | 3.21 µM and 2.4 µM | 2.26 µM | 9.69 µM and 7.81 µM | – | 3.08 µM and 2.79 µM | 1.48 µM | 7.62 µM and 5.45 µM | 1.52 µM | 3.12 µM and 5.49 µM | 1.38 µM | 5.79 µM and 4.31 µM | 1.99 µM | 4.37 µM and 4.5 µM | – | 2.9 µM and 2.69 µM | 0.863 µM | 4.34 µM and 2.52 µM | 2.59 µM | 7.01 µM and 5.68 µM
7 | NOCC(=O)O | > 100 µM | > 100 µM | > 100 µM | > 100 µM | > 100 µM | > 100 µM | 94 µM | > 100 µM | > 100 µM | > 100 µM | 66.8 µM | > 100 µM | > 100 µM | > 100 µM | > 100 µM | > 100 µM | > 100 µM | > 100 µM | > 100 µM | > 100 µM
8 | CC(=O)[O-].CC(=O)[O-].[Pt+2].c1cscn1.c1cscn1 | > 100 µM | > 100 µM | > 100 µM | > 100 µM | > 100 µM | > 100 µM | 54 µM | > 100 µM | > 100 µM | > 100 µM | 53.9 µM | > 100 µM | > 100 µM | > 100 µM | > 100 µM | > 100 µM | 36.1 µM | > 100 µM | 62 µM | > 100 µM
9 | CCN(CC)c1cc2c3c(c1)CCCN3CCC2 | – | > 10 µM | – | > 10 µM | – | > 10 µM | – | > 10 µM | – | > 10 µM | – | > 10 µM | – | > 10 µM | – | > 10 µM | – | > 10 µM | – | > 10 µM
